Experimental data published in patent publication US20250228848A1, “PROCESS FOR MAKING A KRAS G12C INHIBITOR” (ELI LILLY AND COMPANY, priority 2022, published 2025).
Read-outs that look alike come from different tables or passages of the source.

What was measured:
[1] = system: constitutive RAS GTPase activity in human lung cancer cells H358; experiment: H358 Cellular Active RAS GTPase ELISA; format: cell-based; settings: serum free media, incubated for 2 hours with compound
Procedure: Activated RAS (GTP-bound) in cell extracts specifically bind to the Raf-RBD. Bound RAS is detected with a primary antibody that recognizes human KRas. A secondary antibody conjugated with HRP recognizes the primary antibody and a development solution provides a chemiluminescent readout.
The next morning, 10 μL of serially-diluted (3-fold) test compounds (500 μM top concentration) and 10 μL of controls (Maximum signal wells: 5% DMSO and Minimum signal wells: 500 μM 1-[4-[6-chloro-8-fluoro-7-(3-hydroxy-1-naphthyl)quinazolin-4-yl]piperazin-1-yl]prop-2-en-1-one, WO2015054572 as an inhibitor) are added to the cell plate and incubated for 2 hours at 37° C./5% CO2. Complete Lysis/Binding Buffer is prepared containing Protease Inhibitor cocktail and GST-Raf-RBD and stored on ice. One hour before cell plate incubation is completed, 50 μL of GST-Raf-RBD is diluted in lysis/binding buffer, and buffer is added to the ELISA assay plate and which is incubated for 1 hour at 4° C. with gently rocking. After 2 hours, the cells are washed with 100 μL ice-cold PBS and lysed with 100 μL lysis/binding buffer. The cell plate is shaken for 10 minutes at ambient temperature. The cell plate is then centrifuged at 1500 rpm for 10 minutes at ambient temperature. During this time, 1×Wash Buffer is prepared at ambient temperature and then is used to wash (3×100 μL) the GST-Raf-RBD coated assay plate. After washing, 50 μL of cell lysate is added to the GST-Raf-RBD coated assay plate and incubated for 1 hour at ambient temperature with gentle shaking. During this incubation period, 1×Antibody Binding Buffer is prepared and brought to ambient temperature. The assay plate is washed 3×100 μL with 1×Wash Buffer and then 50 μL of Primary Antibody (diluted 1:500 in 1×Antibody Binding buffer) is added. The plate is incubated for 1 hour at ambient temperature. The assay plate is washed 3×100 μL with 1×Wash Buffer and then 50 μL of Secondary Antibody (diluted 1:5000 in 1×Antibody Binding buffer) is added and incubated for 1 hour at ambient temperature. The assay plate is washed 4×100 μL with 1×Wash buffer and then 50 μL of chemiluminescent working solution is added at ambient temperature. The assay plate is then read on an EnVision™ Plate Reader (Perkin Elmer) using a luminescence program.
The signal is converted to percent inhibition using the following equation: % Inhibition=100−[(Test Compound Signal−Median Minimum Signal)/(Median Maximum Signal−Median Minimum Signal)×100]. The Maximum signal is a control well without inhibitor.
(§1) Compounds within the scope of this disclosure are evaluated in this assay substantially as described above.

KRas G12C = KRas G12C (Homo sapiens, UniProt P01116, G12C); experiment: KRas G12C Probe Occupancy TR-FRET Assay; format: binding; settings: for IC50 concentrations relative to Examples 1, 3, 5, and 7 (the P atropisomer designations): comparison of M with P atropisomers, Table 3
KRas G12C, sequence (P01116 1-188 isoform P01116-2 G12C): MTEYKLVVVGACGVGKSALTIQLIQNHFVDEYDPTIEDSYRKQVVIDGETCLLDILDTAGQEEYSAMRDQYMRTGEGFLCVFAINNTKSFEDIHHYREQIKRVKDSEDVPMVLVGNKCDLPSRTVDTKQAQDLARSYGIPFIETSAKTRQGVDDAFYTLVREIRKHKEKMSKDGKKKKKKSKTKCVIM
Text: The purpose of this assay is to measure the ability of an inhibitor to compete with a probe for binding to and covalently modifying KRas G12C at codon 12. The signal is generated by the time-resolved transfer of fluorescence between europium on an antibody bound to KRas G12C Europium-labeled Anti-Histidine Tag Antibody LanthaScreen (the Eu Anti-His antibody) and fluorescent Tracer 647 (Alexa Fluor™) bound to KRas G12C through streptavidin and a biotinylated inhibitor (the “KRas Probe”, see Preparation 223).
Inhibitors are tested in dose response format from 10 mM stocks in 100% DMSO. The Labycyte Echo® 555 is used to dilute and transfer 100 nL per well containing a 10 point, 2.8-fold serial dilution to an assay plate. Two copies of the assay plate are prepared to measure the potency after 5 and 60 minutes incubation of the inhibitor with KRas G12C. His-tagged KRas G12C (20 nM) is added to the plates in assay buffer (20 mM Tris-HCl, pH 7.5, 0.01% TX-100, and 1 mM DTT). After 5 or 60 minutes incubation, 1 μM KRas Probe is added and allowed to covalently modify free KRas G12C for 1 hour. This is diluted 4-fold in buffer containing Eu Anti-His antibody and Streptavidin-Coated Tracer 647 (both from Life Technologies) to achieve KRas G12C (5 nM), Anti-His Antibody (2 nM), KRas Probe ([…]), and Streptavidin Coated Tracer 647 (500 nM). After 30 minutes, the fluorescent signal is read on an Envision™ Plate Reader (excitation at 340 nm, tracer emission (em) at […], and antibody emission at 615 nm). Maximum control wells lack inhibitor and minimum control wells lack both inhibitor and KRas G12C. The signal ratio (em at 665/em at 615) is converted to percent inhibition using the following equation: % Inhibition=100−[(Test Compound Signal−Median Minimum Signal)/(Median Maximum Signal−Median Minimum Signal)×100]. The IC50 is determined by fitting the percent inhibition at each inhibitor concentration to the four parameter nonlinear logistic equation using Genedata Screener®: y=(A+((B−A)/(1+((C/x)∧D)))) where, y=% inhibition, A=minimum asymptote, B=maximum asymptote, C=relative IC50 or the inhibitor concentration producing 50% inhibition within the fitted range of both asymptotes, and D=Hill Slope. Compounds within the scope of this disclosure are evaluated in this assay substantially as described above.

[2] = system: phosphorylation of p-ERK1/2 in human lung cancer cells H358; experiment: H358 Cellular Phospho-ERK AlphaLISA; format: cell-based; settings: incubated for 2 hours with compound, p-ERK 1/2 (Thr202/Tyr204)
Procedure: Briefly, the AlphaLISA® SureFire® Ultra™ p-ERK 1/2 (Thr202/Tyr204) assay is a sandwich immunoassay for quantitative detection of phospho-ERK 1/2 (phosphorylated on Thr202/Tyr204 in ERK1, or Thr185/Tyr187 in ERK2) in cellular lysates using Alpha Technology (Perkin Elmer Cat #ALSU-PERK-A50K).
The next morning, 10 μL of serially-diluted (3-fold) test compounds (50 μM top concentration) and 10 μL of controls (Maximum signal wells: 5% DMSO and Minimum signal wells: 2 μM of N-(3-{3-cyclopropyl-5-[(2-fluoro-4-iodophenyl)amino]-6,8-dimethyl-2,4,7-trioxo-3,4,6,7-tetrahydropyrido[4,3-D]pyrimidin-1(2H)-yl}phenyl)acetamide (trametinib, as a positive control) are added to the cell plate and incubated for 2 hours in humid trays at 37° C./5% CO2. Lysis Buffer is prepared at ambient temperature containing a protease and phosphatase inhibitor cocktail. Culture medium is removed by inverting and shaking the cell plate in the sink and then blotting onto a paper towel. Lysis buffer is added to the cell plate (50 μL per well) and the plate is incubated at ambient temperature for 10 minutes on a shaker. For p-ERK detection, acceptor beads are diluted into a suspension mixture with buffer. Using a STARlet liquid handler, 5 μL of acceptor beads and 2 μL of cell lysate are transferred as a single-step in-tip dilution to a 384 well assay plate. The assay plate is sealed with foil and is incubated at ambient temperature for 2 hours. Donor beads are diluted into a suspension mixture with buffer. Using the STARlet, 5 μL of donor beads are added to the assay plate that is then sealed, wrapped with foil. The plate is incubated at ambient temperature for 2 hours in the dark. The assay plate is then read on an EnVision™ Plate Reader (Perkin Elmer) using a luminescence program.
The signal is converted to percent inhibition using the following equation: % Inhibition=100−[(Test Compound Signal−Median Minimum Signal)/(Median Maximum Signal−Median Min Signal)×100]. The Maximum signal is a control well without inhibitor.
as §1

[3] = 5 minutes incubation of the inhibitor with His-tagged KRas G12C before KRas Probe, read-out: IC50 (nM) @ 5 min
[4] = 60 minutes incubation of the inhibitor with His-tagged KRas G12C before KRas Probe, read-out: IC50 (nM) @ 60 min

| Compound | IC50 ([1]; read-out: IC50) | IC50 (KRas G12C; [3]) | IC50 (KRas G12C; [4]) | IC50 [2] | IC50 concentrations relative to Examples 1, 3, 5, and 7 (the P atropisomer designations) (KRas G12C) | IC50 [1] |
| --- | --- | --- | --- | --- | --- | --- |
| C=CC(=O)N1CCN2C(=O)c3cc(Cl)c(-c4ccc(F)c5sc(N)nc45)c(Cl)c3OCC[C@H]2C1 (single isomer, unassigned) [Example 1] | 14400 nM | 18600 nM | 16000 nM | 2460 nM |  |  |
| C=CC(=O)N1CCN2C(=O)c3cc(Cl)c(-c4ccc(F)c5sc(N)nc45)c(Cl)c3OCC[C@H]2C1 (single isomer, unassigned) [Example 2] | 6.71 nM | < 15 nM | < 15 nM |  | superior IC50 concentrations |  |
| C=CC(=O)N1CCN2C(=O)c3cc(F)c(-c4cccc5sc(N)c(C#N)c45)c(Cl)c3OCC[C@H]2C1 (single isomer, unassigned) [Example 3] | 902 nM | 451 nM | 843 nM | 206 nM |  |  |
| C=CC(=O)N1CCN2C(=O)c3cc(F)c(-c4cccc5sc(N)c(C#N)c45)c(Cl)c3OCC[C@H]2C1 (single isomer, unassigned) [Example 4] | 5.66 nM | < 15 nM | < 15 nM | 1.31 nM | superior IC50 concentrations |  |
| C=CC(=O)N1CCN2C(=O)c3cc(F)c(-c4ccc(F)c5sc(N)c(C#N)c45)c(Cl)c3OCC[C@H]2C1 (single isomer, unassigned) [Example 5] |  | 3270 nM | 3250 nM | 330 nM |  | 1770 nM |
| C=CC(=O)N1CCN2C(=O)c3cc(F)c(-c4ccc(F)c5sc(N)c(C#N)c45)c(Cl)c3OCC[C@H]2C1 (single isomer, unassigned) [Example 6] |  | < 15 nM | < 15 nM | 0.649 nM | superior IC50 concentrations | 3.31 nM |
| C=CC(=O)N1CCN2C(=O)c3cc(F)c(-c4ccc(F)c5sc(N)c(C#N)c45)c(Cl)c3OC[C@H]2C1 (single isomer, unassigned) [Example 7] | 23800 nM | 26900 nM | 17900 nM | 2980 nM |  |  |
| C=CC(=O)N1CCN2C(=O)c3cc(F)c(-c4ccc(F)c5sc(N)c(C#N)c45)c(Cl)c3OC[C@H]2C1 (single isomer, unassigned) [Example 8] | 4.62 nM | < 15 nM | < 15 nM | 0.902 nM | superior IC50 concentrations |  |
